Test results as given in paper PMC4734850, “Tyrosinase inhibitory activity of flavonoids from Artocarpus heterophyllous” (Chemistry Central Journal, 2016).
Where two headings read alike, the source gives them in different places.

Key:
mushroom tyrosinase = target: T1, mushroom tyrosinase (Agaricus bisporus, UniProt C7FF04); test: Inhibition mechanism, Lineweaver–Burk plots; assay type: biochemical; conditions: 30 °C, pH 6.8
T1 construct: purchased Sigma Chemical Co. (St. Louis, MO, USA)
Procedure: Fig. 3 Lineweaver–Burk plots for type of inhibition of mushroom tyrosinase (10 U/mL) by artocaepin E (1) for the catalysis of L-DOPA (0.2, 0.3, 0.4, 0.5, and 0.6 mM) at 30 °C, pH 6.8. Concentration of these compounds for curves I0.0, I5.0, I7.0, and I10.0 were 0.0, 5.0, 7.0, and 10.0 μM, respectively. The inset represents the plot of these compounds for determining the inhibition constant (Ki). The line is drawn using a linear lest squares fit
The dependence of absorbance (475 nm) on time was measured, and the reaction rate was calculated for all reactions (uninhibited and inhibited). Then, a Lineweaver–Burk plot was constructed, and Km and Vm values were calculated. Each measurement was performed in duplicate.

[1] = target: T2, Tyrosinase (EC 1.14.18.1) from mushroom (Agaricus bisporus, UniProt C7FF04); test: Tyrosinase inhibitory assay (L-DOPA oxidation, absorbance at 475 nm); assay type: biochemical
T2 construct: purchased Sigma Chemical Co. (St. Louis, MO, USA)
T2 sequence (C7FF04 1-392 limits assumed): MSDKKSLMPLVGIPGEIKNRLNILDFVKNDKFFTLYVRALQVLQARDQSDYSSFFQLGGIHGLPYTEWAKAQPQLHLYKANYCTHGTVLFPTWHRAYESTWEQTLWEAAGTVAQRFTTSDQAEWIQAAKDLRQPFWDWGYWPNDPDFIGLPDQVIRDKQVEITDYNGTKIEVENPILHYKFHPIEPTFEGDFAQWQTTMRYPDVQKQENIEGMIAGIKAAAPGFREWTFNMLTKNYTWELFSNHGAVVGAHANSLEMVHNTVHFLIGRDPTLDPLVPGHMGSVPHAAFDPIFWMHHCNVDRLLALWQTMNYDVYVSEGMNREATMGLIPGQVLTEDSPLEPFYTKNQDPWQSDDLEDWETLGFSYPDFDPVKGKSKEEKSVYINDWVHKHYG
Procedure: Tyrosinase (EC 1.14.18.1) from mushroom (3933 U/mL) and L-dihydroxyphenylalanine (L-DOPA) were obtained from Sigma Chemical Co. (St. Louis, MO, USA). […] Other chemicals were of the highest grade available.
All the samples were first dissolved in DMSO and used for the actual experiment at concentrations of […] (or µM for pure compounds). The tyrosinase inhibitory activity assay was performed as previously described by Arung et al.. The assay mixtures consisting of 1900 µL of test solution in 0.1 M phosphate buffer pH 6.8 and 100 µL of enzyme solution (15 U/mL in 0.1 M phosphate buffer pH 6.8) was prepared immediately before use. After preincubation at room temperature for 30 min, the reaction was initiated by the addition of 1000 µL of substrate solution (1.5 mM L-DOPA in 0.1 M phosphate buffer pH 6.8). The assay mixture was incubated at room temperature for 7 min, and the absorbance at 475 nm was measured with a Shimadzu UV-1800 spectrophotometer. […] Tyrosinase inhibitory activity was expressed as the percentage inhibitory of enzyme tyrosinase in the above assay system, calculated as (1 − B/A) × 100, where A and B are the activities of the enzyme without and with test material. IC50 values were calculated from the mean values of data from four determinations.

[2] = mushroom tyrosinase, substrate L-DOPA, 0.1 M phosphate buffer pH 6.8, room temperature, read-out: Tyrosinase inhibitory activity IC50

T1 sequence (C7FF04 1-392 limits assumed): as above

Row | IC50 [1, 2] [µM] | Compound | other results
1 | > 50 | O=c1cc(-c2ccc(O)cc2O)oc2cc(O)cc(O)c12 [Compound 3, norartocarpetin] | 
2 | 2 ± 0.1 | COc1cc(O)c2c(c1)O[C@H](c1ccc(O)cc1O)CC2=O [Compound 4, artocarpanone] | 
3 | 7.5 ± 0.5 | O=C1CC(c2ccc(O)cc2O)Oc2cc(O)cc(O)c21 (stereo not shown) [Compound 6, steppogenin] | inhibitory activity relative to 4 ([1]; ratio of tyrosinase IC50 values, 6 vs 4): 3.75 fold
4 | > 50 | O=C1c2c(O)cc(O)cc2O[C@H](c2ccc(O)cc2O)[C@H]1O [Compound 7, dihydromorin] | 

Second part, the compound before the results:

Row | Compound | IC50 [1, 2] [µM] | other results
5 | C/C(=C\Cc1c(O)cc2oc(-c3ccc(O)cc3O)cc(=O)c2c1O)COC(=O)/C=C/c1ccc(O)cc1 [Compound 1, artocaepin E] | 6.7 ± 0.8 | type of inhibition (mushroom tyrosinase; Lineweaver–Burk plots, L-DOPA substrate): competitive inhibition; Ki (mushroom tyrosinase; mushroom tyrosinase 10 U/mL, L-DOPA 0.2-0.6 mM, read-out: inhibition constant (Ki)): 6.23 µM
6 | C/C(=C\Cc1c(O)ccc2c1O[C@H](c1ccc(O)cc1)CC2=O)CO [Compound 2, artocaepin F] | > 50 | 
7 | O=C1C[C@@H](c2ccc(O)cc2)Oc2cc(O)ccc21 [Compound 5, liquiritigenin] |  | IC50 [1]: 22 ± 2.5 µM
